# Measured values reported in patent US20090176857A1, “Use of Organic Compounds” (priority 2005, published 2009).
# Legend:
# [1] = test system: patients with constipation predominant and alternating forms of IBS; details: literature abstract; cited from earlier work
# [2] = test system: women with IBS-C (Rome II criteria) and IBS-M (modification of Rome II); assay: Randomized, double-blind, placebo-controlled, multicenter study, 4 weeks treatment, in patients with IBS-C and IBS-M; assay type: in vivo; details: for days/week with no BMs (mean) / stool consistency score using a 7-patient scale (mean) / days/wk with straining (mean) / weekly BM frequency (mean): p<0.05
# Description: Evaluation of the effect of tegaserod (T) on multiple symptoms in women with mixed/alternating bowel habits.
# METHODS: A randomized, double-blind, placebo-controlled, multicenter study was performed in patients with IBS-C (based on Rome II criteria) and IBS-M (modification of Rome II). The primary efficacy variable was the patients' assessment of satisfactory relief over 4 weeks treatment with T 6 mg bid or Placebo (P). The proportion of patients reporting satisfactory relief of 4 weeks (75% rule) and improvement during each of the 4 weeks in individual IBS symptoms were also assessed. Treatments were compared using a generalized linear model with logit link.
# RESULTS: 661 women were randomized (IBS-C 337; IBS-M 324). Baseline symptom assessment clearly distinguished between the IBS-C and the IBS-M cohorts. Statistically significant differences were found between the two cohorts in bowel movement (BM) frequency, stool consistency and straining. T provided statistically significant improvement in satisfactory relief of IBS symptoms over a 4-week treatment (odds ratio 1.75; 95% CI: 1.35, 2.25; p-value<0.001) for the IBS-C and IBS-M cohorts. […] Adverse event discontinuations were low (IBS-C: T 1.2% v P 2.4% and IBS-M: T 2.5% v P 3.6%). Most frequent AEs (with discontinuations) were diarrhea (1.1%), headache (0.6%) and nausea (0.3%). No clinically significant diarrhea or colitis of any type was reported.
structure (smiles),measurement,setting,value
"[H]/N=C(/NCCCCC)N/N=C/c1c[nH]c2ccc(OC)cc12 [T, tegaserod]",safety and tolerability profile,[1],favourable safety and tolerability profile
same,"satisfactory relief of IBS symptoms over a 4-week treatment, odds ratio","[2]; IBS-C and IBS-M cohorts, T 6 mg bid vs placebo, 95% CI: 1.35, 2.25, p<0.001",1.75
same,percentage of patients experiencing satisfactory relief of IBS symptoms (75% rule),"[2]; IBS-C cohort, T 6 mg bid, 4 weeks, placebo 28.9%, p=0.008",43.3%
same,days/week with no BMs (mean),"[2]; IBS-C cohort, T 6 mg bid, placebo 2.18",2.31 days/week
same,Adverse event discontinuations,"[2]; IBS-C cohort, T 6 mg bid, placebo 2.4%",1.2%
same,stool consistency score using a 7-patient scale (mean),"[2]; IBS-C cohort, T 6 mg bid, placebo 2.89",3.53
same,days/wk with straining (mean),"[2]; IBS-C cohort, T 6 mg bid, placebo 3.55",3.08 days/wk
same,weekly BM frequency (mean),"[2]; IBS-C cohort, T 6 mg bid, placebo 6.06",6.88
same,percentage of patients experiencing satisfactory relief of IBS symptoms (75% rule),"[2]; IBS-M cohort, T 6 mg bid, 4 weeks, placebo 36.3%, p=0.010",52.3%
same,days/week with no BMs (mean),"[2]; IBS-M cohort, T 6 mg bid, placebo 1.68",1.39 days/week
same,days/wk with straining (mean),"[2]; IBS-M cohort, T 6 mg bid, placebo 2.87",2.42 days/wk
same,stool consistency score using a 7-patient scale (mean),"[2]; IBS-M cohort, T 6 mg bid, placebo 3.49",3.95
same,Adverse event discontinuations,"[2]; IBS-M cohort, T 6 mg bid, placebo 3.6%",2.5%
same,weekly BM frequency (mean),"[2]; IBS-M cohort, T 6 mg bid, placebo 8.34",9.78
same,treating the overall symptoms of IBS in patients with a mixed or alternating bowel habit (conclusion),"[2]; IBS-M, T 6 mg bid, 4 weeks",effective and safe
same,Most frequent AEs (with discontinuations): diarrhea,[2]; treatment group not stated,1.1%
same,Most frequent AEs (with discontinuations): headache,[2]; treatment group not stated,0.6%
same,Most frequent AEs (with discontinuations): nausea,[2]; treatment group not stated,0.3%
